Data on 60 compounds can be found in a melting point compilation (Tetko et al.; mined from patent text by program, amines drawn as free bases though some values may be those of a salt).

What is called melting point is the temperature of the solid-liquid transition.

With `CC=Cc1cccc2c(=O)c(C)c(C(=O)O)oc12`, the melting point was in the range of 224 to 228 °C.
Next, `COc1ccc(Cl)cc1NC(=O)NCc1ccc2c(c1)CN(C1CCC(=O)NC1=O)C2=O` (stereo not given): 283 to 285 °C.
The figure for `Cc1cccc(C(=C2CN(C(c3ccccc3)c3ccccc3)C2)S(C)(=O)=O)c1` is 180 °C; for `O=c1[nH]c2ncc(-c3ccc(F)cc3)nc2c(O)c1-c1c(F)cc(F)cc1F` it is 285 to 288 °C; for `CC(Br)c1ccc(-c2onc3ccccc23)cc1` (stereo not given) it is 106 to 108 °C.
Next, `CC(=O)NCCc1coc2ccc3c(c12)OCCO3`: 112 °C; `CN1N=C(Br)C2N=C(Cl)N=C(O)C21` (stereo not given): 260 to 262 °C; `Cc1cc(C)c(OC(=O)NC2CC2c2ccc(-c3ncn(-c4ccc(OC(F)(F)F)cc4)n3)cc2)c(C)c1` (stereo not given): 199 to 202 °C.
For the compound `O=C(O)c1ccccc1OCCNC(=O)C1Cc2ccccc2N1S(=O)(=O)c1ccc(-c2cccc(C(F)(F)F)c2)cc1` (stereo not given), the melting point was found to be 70 °C.
The figure for `COc1c(F)c(F)c(C(=O)c2ccc(Br)cc2)c(F)c1F` is 80 to 82 °C; for `CN1C(=O)CCC1(O)c1ccc(Cl)c(N)c1` (stereo not given) it is 154 °C.
Next, `CC(=O)c1cccc(NC(=O)c2cc(C(N)=O)cc(C(=O)N(c3cccc(C(C)=O)c3)c3cccc(C(C)=O)c3)c2)c1`: 270 °C; `Cc1nnc2n1-c1ccc(C#CCN3C(=O)CCc4ccccc43)cc1C(c1ccccc1F)=NC2`: 236 to 239 °C.
The figure for `O=C1NCCC[C@@H]1NS(=O)(=O)c1cccc(F)c1` is 159 to 160 °C; for `Nc1ccn(C2CN3CCC2CC3)n1` (stereo not given) it is 112 to 115 °C.
`CCOC(=O)C(CC(=O)c1cccc(OC)c1)(NC(C)=O)C(=O)OCC` had a melting point of 119 to 120 °C.
The figure for `CN1CCCC(OC(=O)Nc2ccc(F)cc2)C1` (stereo not given) is 97 to 98 °C; for `COc1cc(C)c2cc(C(C)O)ccc2c1C` (stereo not given) it is 78 °C; for `O=S(=O)(c1ccc(Cl)cc1)C(CCSCCO)c1cc(F)ccc1F` (stereo not given) it is 108 to 110 °C.
As to `COC(=O)C1=C(CF)NC(C)=C(C(=O)OC(C)C)C1c1cccc([N+](=O)[O-])c1Cl` (stereo not given), the melting point lay within 156 to 157 °C.
Turning to `COc1ccc2nc(NC(=O)C(CC3CCCC3)c3ccc(S(=O)(=O)N4CCOCC4)cc3)sc2n1` (stereo not given), the melting point lay in the range of 120 to 123 °C.
Consider `Cc1cc(C)c2[nH]c(C(=O)O)cc2c1`, for which the melting point was in the range of 254 to 256 °C.
The figure for `C=CCOC(=O)c1c(C)nc2[nH]c3ccccc3c2c1N` is 220 to 222 °C; for `CC(C)(C)NC(=O)c1nn(-c2ccc(Br)cc2)c2c1[C@@H]1CC[C@H]2C1` it is 148 to 149 °C.
The figure for `CC12CCC(=O)C=C1CCC1C2CCC2(C)C1CCC2(O)C(=O)CCl` (stereo not given) is 239 °C.
The figure for `N#CCCNC(=O)c1n[nH]cc1NC(=O)c1ccc(C(F)(F)F)cc1` is 245 to 246 °C; for `Nc1ccc(S(=O)(=O)N2CCCC(c3ccc(Cl)cc3)=N2)cc1` it is 205 to 206 °C.
Regarding `O=C(O)Cc1ccc(NC(=O)C(COc2ccccc2Cl)NS(=O)(=O)c2ccc(Cl)cc2)cc1` (racemic), the melting point was in the range of 190 to 191 °C.
Next, `OC(c1ccncc1)c1c[nH]c(-c2ccc(F)cc2)c1-c1ccncc1` (single isomer, unassigned; (+)): 202 to 205 °C; `NC(=O)C(=Cc1c[nH]c2ncccc12)c1ccccc1`: 222 to 224 °C; `Cc1nnnn1-c1ccccc1C(=O)O`: 157 to 160 °C.
For the compound `COC(=O)C#CC1CCC2C3CCC4CC(O)CCC4(C)C3CCC12C` (stereo not given), the melting point lay within 135 to 137 °C.
Next, `Cc1cc(C)c(CC(C)CC(C(=O)C(CC(C)Cc2c(C)cc(C)cc2C)N2C(=O)c3ccccc3C2=O)N2C(=O)c3ccccc3C2=O)c(C)c1` (stereo not given): 131 to 132 °C.
Next, `CCCCCCCCCCCCCCN(C(=O)CCCCCCCCCCC)C1(N)OC(CO)C(O)C(O)C1C(=O)C(N)C(=O)CNC` (stereo not given): 116 °C; `O=C(NCc1ccc(Cl)cc1)c1noc2ccc(I)cc2c1=O`: 188 to 190 °C; `Cc1ccc(Sc2cc(C(=O)O)ccc2C(=O)O)cc1`: 326 °C.
On to `Cc1ccc([C@@H](O)[C@H](Br)C(=O)N2C(=O)O[C@H](c3ccccc3)[C@@H]2C)cc1`, for which the melting point stood at 139 °C.
As to `CCOc1nn(-c2ccc(C(F)(F)F)cn2)cc1CCCOc1ccc(CCC(=O)O)c(OC)c1`, the melting point lay within 120 to 121 °C.
Next, `O=c1[nH]c2cccc(C(F)(F)F)c2c(=O)o1`: 232 to 233 °C; `NC(=O)c1nc(-c2cnc3nc[nH]c3c2)nc2c1[nH]c(=O)n2-c1ccccc1C(F)(F)F`: 320 °C; `CC(C)COC(=O)N1CCN(C2=C(Cl)C(=O)c3ccccc3C2=O)CC1`: 92 to 94 °C.
For the compound `COC(=O)[C@@H](Cc1ccccc1)NC(=O)OCc1cc2cc(-c3ccccc3)ccc2o1`, the melting point lay in the range of 85 to 86 °C.
Next, `Cc1ccc(N(c2ccccc2)c2ccc(-c3ccc(N(c4ccccc4)c4ccc(C)cc4)cc3)cc2)cc1`: 163 to 164 °C.
The figure for `COc1c(C2CCN(CCCCNC(=O)c3ccc(-c4ccc(Cl)s4)nc3)CC2)ccc2c1CCCC2` is 175 to 177 °C.
The figure for `O=S(=O)(Nc1cnc(-n2cnnn2)nc1NCc1ccccc1)c1ccc(Br)cc1` is 184 °C; for `O=C(O)c1cc(C(F)(F)F)ccc1Cl` it is 93 to 94 °C.
In turn, `COC(=O)CCCCCCCCOC1OC(CO)C(O)C(O)C1O` (stereo not given) displayed a melting point of 104 to 105 °C.
Compound `O=S(=O)(O)CCCNC1CCCC1` came in with a melting point of 280 to 282 °C.
Next, `COc1cc(NC(=O)C(C#N)=CNc2ccc(OC)c(I)c2)c(Cl)cc1Cl`: 289 to 290 °C.
The figure for `CC(CNC(=O)c1ccc(Oc2ccc(F)cc2)o1)N(O)C(N)=O` (stereo not given) is 180 to 181 °C; for `COC(=O)C(Oc1ccc(C(F)(F)F)cc1)c1ccc(OCCOc2ccc(Cl)cc2)cc1` (stereo not given) it is 95 to 97 °C; for `CCC(CC)Nc1nc(C)nc(N2CCc3cc(OC)cc(Cl)c32)c1C#N` it is 192 to 194 °C.
Next, `CCCCCCOCOc1c(C(C)(C)C)cc(-c2ccc(C#N)c(C#N)c2)cc1C(C)(C)C`: 106 to 107 °C.
`COC(=O)C(C)(C)c1ccc(OCCN)cc1` yielded a melting point of 108 to 112 °C.
The figure for `COc1cc2c(cc1-c1cccnc1)-c1c(Cl)c3c(n1CC2)C(=O)N(C(C)(C)C)CCCC3` is 190 to 192 °C; for `CC(=O)OCC1OC(n2cc(Cc3ccc(OC(F)(F)F)cc3)c3c(Cl)cccc32)C(OC(C)=O)C(OC(C)=O)C1OC(C)=O` (stereo not given) it is 193 to 194 °C; for `CC12CCC3C(CC(O)C4(O)CC(O)CCC34C)C1CCC2=O` (stereo not given) it is 304 to 306 °C.
Next, `O=C(O)C1Cc2cc(-c3ccc(Cl)cc3)ccc2O1` (stereo not given): 94 to 96 °C; `CCOC(=O)c1nc(NC(=N)N=CN(C)C)sc1-c1ccncc1`: 203 to 204 °C; `C[C@H]1CN(c2ccc([N+](=O)[O-])cc2)[C@@H](C)CN1` (relative stereo): 93 to 94 °C.
